Here are results for two compounds from patent US10532065B2, “Bisphosphonic acid derivative and application for same” (NAGASAKI UNIVERSITY, priority 2014, dated 2020).

The term IC50 denotes the point on the concentration scale where inhibition reaches its midpoint. Lower therefore signals greater potency.

For test [1], the system named is K562 cells. Briefly: K562 tumor cell growth inhibition (CellTiterGlo). The test is classed as cell-based. The note with it: K562, Erythromcytoma, 4 days culture. (In general: In ATP-based viability assays light output follows the ATP content of the culture.)
Method: To quantitatively study an action of compound 7, which is a bisphosphonic acid POM ester derivative, on various hematologic tumor-derived lymphoma and myeloidic leukemia cells, the concentration of a compound that inhibits cell proliferation to half was calculated as IC50, and a direct antitumor effect was studied from the value thereof. […] First, MOLT-4, THP-1, SCC-3, PEER, RAMOS-RA1, C1R, MOLT-3, Raji, U937, K562, Daudi were cultured in RPMI1640 medium supplemented with 10% calf serum at 37° C. under 5% CO2 atmosphere while maintaining log phase. The cells were recovered, and centrifuged at 1,700 rpm, 4° C. for 5 min. The supernatant was removed, and suspended in RPMI1640 medium supplemented with 10% calf serum to 500 cells/50 μl. On the other hand, 10 mM stock solution of compound 7 which is a bisphosphonic acid POM ester derivative was serially diluted 2-fold from 200 μM. In addition, 10 mM stock solution of compound 14 which is bisphosphonic acid was serially diluted 2-fold from 2 mM. Then, the cell suspension (50 μl, 500 cells) and the compound solution (50 μl) were added to a flat-bottomed 96 well plate and cultured at 37° C. under 5% CO2 atmosphere for 4 days. Then, 100 μl of CellTiterGlo solution was added, and the mixture was pipetted 10 strokes, and transferred to a 96 well OptiPlate. […]
Test [2] deals with various tumor cell lines / γδ T cells. Description: TNF-α production induction ability in various tumor cell lines (FIG. 7, 8). The test is classed as cell-based. Particulars: various tumor cell lines pretreated, γδ T cells (FIG. 7, 8). On the procedure:
From the results of the above-mentioned Experimental Example, of the bisphosphonic acid POM ester derivatives, since the activity of compound 7 was high, the TNF-α production induction ability of this compound was studied using tumor cells other than EJ-1. In this case, to study effectiveness of POM esterification, using compound 14, which is the corresponding bisphosphonic acid, as a control to be the comparison target. […] Thereto was added a solution (500 μl) of compound 7 obtained by serially diluting 10 mM stock solution 10-fold from 20 μM, or a solution (500 μl) of compound 14 obtained by serially diluting 10 mM stock solution 10-fold from 200 μM, and the cells were suspended well. These conical tubes were stood at 37° C. for 4 hr, and the cells were washed 3 times with 5 ml of culture medium. To these cells was added 500 μl of medium, and the cells were suspended well. […] The content of TNF-α was calculated from the analytical curve of TNF-α. […]
Therefore, TNF-α production induction ability of compound 7 was studied in more number of tumor cell lines. […] The content of TNF-α was calculated from the analytical curve of TNF-α.
To quantitatively study the above-mentioned TNF-α production induction ability, various tumor cell lines were treated with compound 7, reacted with γδ T cells, the produced TNF-α amount was measured, and TNF-α50 value thereof was calculated. […]

Test [3] deals with farnesyl diphosphate synthase (geranylgeranylation of Rap1A). Briefly: Rap1A geranylgeranylation inhibition in tumor cells (Western blotting). The note with it: non-geranylgeranylated Rap1A, 16 hr, various tumor cell lines (FIG. 9). The test is classed as cell-based. The source says: To verify this mechanism, whether the farnesyl diphosphate synthase is inhibited in the cell needs to be confirmed. If farnesyl diphosphate synthase is inhibited, intracellular concentration of geranylgeranyl diphosphate decreases, and geranylgeranylation of Rap1A small G protein is inhibited. The inhibitory effect thereof is clarified by quantifying the inhibition of geranylgeranylation of Rap1A. […] As the tumor cells, MOLT-3, PEER, C1R, J.RT3-T3.5, Raji, RAMOS-RA1, MOLT-4, HL60, U937, THP-1, SCC-3, P31/FUJ, K562, NOMO-1, YMB-1-E, MRK-nu-1, HMC-1-8, MCF-7, MDA-MB-231, T-47D, SK-BR-3, 786-0, VMRC-RCZ, UOK121, Caki-1, A-704, BxPC-3, KP4-1, KP4-2, KP4-3, MiaPaCa-2, TGBC24TKB, ACS, MG-63, LK-2, EJ-1 were used. […] Thereto was added 10 mM stock solution of compound 7 to a final concentration of 10 μM, 1 μM, 100 nM, 10 nM, 1 nM, 100 pM, 10 pM, 1 pM. These flasks were cultured at 37° C. under 5% CO2 atmosphere for 16 hr. Non-adherent cells were left unattended, and adherent cells were recovered using EDTA/trypsin solution. […] The supernatant was removed, and suspended in cell lysis solution (100 μl) composed of 1% NP-40, 0.1% SDS, 0.5% sodium deoxycholate. […]
To quantitatively analyze the inhibitory efficiency thereof, the concentration of a compound that inhibits geranylgeranylation of Rap1A by half was calculated as EC50 value and studied by comparison. […]

The subject of test [4] is γδ T cells in peripheral blood mononuclear cells of a healthy adult. The note with it: healthy adult PBMC, 1 μM, IL-2, 14 days of culture.
Method: Mononuclear cells were obtained by the specific gravity centrifugation method from the peripheral blood of a healthy adult. The obtained mononuclear cells were suspended in Yssel medium at 1.8×10^6 cells/ml, and seeded by 1.5 ml in each well of a 24-well plate. Compound 7 was added to each well at a concentration of 1 μM, and cultured at 37° C. under 5% CO2 atmosphere. After one day of culture, IL-2 was added at a concentration of 100 IU/ml, and the cells were cultured in the presence of 100 IU/ml IL-2 thereafter up to day 6, and cultured in the presence of 30 IU/ml IL-2 from day 7. After 14 days of culture, the cells were recovered, and cell surface molecule was analyzed by flow cytometry using labeled anti-CD3 antibody and labeled anti-Vδ2 antibody. As a control, an antibody having the same isotype as anti-CD3 antibody and anti-Vδ2 antibody but irrelevant thereto was used. The ratio (%) of γδ T cells having the Vδ2 region in CD3 cells was determined.
Test [5] deals with γδ T cells in peripheral blood mononuclear cells of breast cancer patients. Particulars: breast cancer patient PBMC, IL-2, 17 days of culture.
Method: The obtained mononuclear cells were suspended in Yssel medium at 1.8×10^6 cells/ml, and seeded by 1.5 ml in each well of a 24-well plate. Compound 7 was added to each well at a concentration of 1 μM, and cultured at 37° C. under 5% CO2 atmosphere. After one day of culture, IL-2 was added at a concentration of 100 IU/ml, and the cells were cultured in the presence of 100 IU/ml IL-2 thereafter up to day 6, and cultured in the presence of 30 IU/ml IL-2 from day 7. After 14 days of culture, the cells were recovered, and cell surface molecule was analyzed by flow cytometry using labeled anti-CD3 antibody and labeled anti-Vδ2 antibody. As a control, an antibody having the same isotype as anti-CD3 antibody and anti-Vδ2 antibody but irrelevant thereto was used. The ratio (%) of γδ T cells having the Vδ2 region in CD3 cells was determined.
In the same manner as in Experimental Example 21 except that mononuclear cells obtained from the peripheral blood of breast cancer patients were used, compound 7 was added, and the cells were cultured at 37° C. under 5% CO2 atmosphere. […] After 17 days of culture, the cells were recovered, and cell surface molecule was analyzed by flow cytometry in the same manner as in Experimental Example 21. Also, the ratio (%) of γδ T cells having the Vδ2 region in CD3 cells was determined.

Each structure is given as a SMILES string. “Also recorded” adds a separate entry of the source.

In turn, `CC(C)(C)C(=O)OCOP(=O)(OCOC(=O)C(C)(C)C)C(CNc1nccs1)P(=O)(OCOC(=O)C(C)(C)C)OCOC(=O)C(C)(C)C` [Compound 7, tetrakispivaloyloxymethyl 2-(thiazol-2-ylamino) ethylidene-1,1-bisphosphonate] displayed an IC50 in test [1] of 0.029 µM. Moreover, the “TNF-α production induction ability (in words)” value in test [2] is reported as “TNF-α production induction ability becomes high by POM esterification in any tumor cells; also recorded: efficient induction of TNF-α production from γδ T cells in any cell line”. The “farnesyl diphosphate synthase inhibitory action in cells (in words)” value in test [3] is “inhibits efficiently, in any tumor cells, farnesyl diphosphate synthase; also recorded: high farnesyl diphosphate synthase inhibitory action in lymphatic tumor cells and myeloidic tumor cells”. Moreover, the “ratio (%) of γδ T cells having the Vδ2 region in CD3 cells” value in test [4] is listed as 99.8%. Moreover, in test [5], the “ratio (%) of γδ T cells having the Vδ2 region in CD3 cells (purity)” value is recorded as “not less than 96%”.

Take `O=P(O)(O)C(CNc1nccs1)P(=O)(O)O` [Compound 14, 2-(thiazol-2-ylamino)ethylidene-1,1-bisphosphonic Acid, reference compound]: the IC50 in test [1] (Homo sapiens, 96 h) came to 16 µM.
